Measurements from patent publication US20230416168A1 (EUROCHEM ANTWERPEN, priority 2020, published 2023).
Read-outs that look alike come from different tables or passages of the source.

Legend:
Nitrosomonas europaea = test: Nitrification inhibition assay with Nitrosomonas europaea (nitrite level after 24 h); assay type: cell-based; details: for IC50 / activity at 100 µM: Nitrosomonas europaea; for IC50: 8-point dose response, 2 to 100 μM, read-out: IC50; for activity at 100 µM: tested concentration 100 μM, 24 h, normalized to DMSO (100%) and 100 μM DMP (0%), read-out: Nitrification (%) at tested concentration (0 = maximum activity)
Procedure, shortened: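 Fivefold-concentrated N. europaea culture with ammonium incubated 24 h at 28 °C, shaken, with compound (single-point screen at 50 μM final; dose–response 2–100 μM, 8 points, 1.75-fold steps). Nitrite measured by Griess reagent at 540 nm, normalised per plate to 1% DMSO and 100 μM DMP controls; IC50 from logistic fit.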

Moorslede soil = test: In soil nitrification inhibition assay, Moorslede soil; details: for inhibition at 50 µM / inhibition at 5 µM / inhibition at 20 µM: soil
Description: Top layer (0 to 10 cm) soil samples were collected from different fields in Belgium (Merelbeke and Moorslede). Vegetation on the field trial was removed and samples were taken from different plots. All soil samples were mixed and sieved (mesh size 2.8 mm) to filter large debris and homogenize soil. The soil was stored at 5° C. in plastic containers covered with Saran foil to prevent changes in microbial community composition and to maintain the original soil water content.
Soil water content was determined by drying 20 g soil for 48 h in a 60° C. oven and measuring weight before and after drying. Based on the soil water content (±20%), compound solutions were prepared so that addition of 200 μl compound and 200 μl NH4Cl solution would result in a final compound concentration of 50 μM and a final NH4^+ concentration of 10 mM. Per treatment, 5 small pots were filled with 20 g soil. Next, the soil was treated first with the respective compound solution and then with the NH4Cl solution. Per tray, positive (50 μM DMP) and negative controls (DMSO) were included. Pots were incubated at 21° C. (6 a.m. to 10 p.m. light) for 7 days. Demineralized water was added to the soil every 2 to 3 days to a soil weight of 20 g. In the end, each sample of 20 g soil was dissolved in 100 ml 1M KCl and shaken for 1 hour, followed by filtration through Whatmann® paper. The filtrate was used to measure pH, NH4^+ and NO3− concentrations.
A set of examples was tested in the same conditions (Moorslede soil, 3 days of incubation) at a concentration of 50 μM.
Another set of examples was tested in different concentrations in Moorslede soil as well, and were sampled after 5 days.
The effect of 3H-1,3-thiazole-2-thione was tested in soil in accordance with the test described above in section 3.3.

[1] = 72 h, 3 days, read-out: % Nitrification inhibition in soil (3 days of incubation, Moorslede soil) at 50 μM
[2] = 120 h, 5 days, read-out: % Nitrification inhibition in soil (5 days of incubation, Moorslede soil) at indicated concentration
[3] = 120 h, 20 μM, 5 days, read-out: % Nitrification inhibition in soil (5 days of incubation, Moorslede soil) at indicated concentration

Row | SMILES | nitrification inhibition, in words (Nitrosomonas europaea) | IC50 (Nitrosomonas europaea) | activity at 100 µM (Nitrosomonas europaea) | inhibition at 50 µM (Moorslede soil; [1]) | inhibition at 5 µM (Moorslede soil; [2]) | inhibition at 20 µM (Moorslede soil; [3]) | inhibition at 50 µM (Moorslede soil; [2]) | nitrification inhibition in soil, in words (Moorslede soil; 20 μM, 5 days) | inhibition at 20 µM (Moorslede soil; 120 h, 20 μM, 5 days, read-out: Average % nitrification inhibition in soil (5 days of incubation, Moorslede soil) at 20 μM) | Average nitrification [%] in Nitrosomonas europaea (Nitrosomonas europaea; 2 μM) | Average nitrification [%] in Nitrosomonas europaea (Nitrosomonas europaea; 3.5 μM) | Average nitrification [%] in Nitrosomonas europaea (Nitrosomonas europaea; 6 μM) | Average nitrification [%] in Nitrosomonas europaea (Nitrosomonas europaea; 11 μM) | Average nitrification [%] in Nitrosomonas europaea (Nitrosomonas europaea; 19 μM) | Average nitrification [%] in Nitrosomonas europaea (Nitrosomonas europaea; 33 μM) | Average nitrification [%] in Nitrosomonas europaea (Nitrosomonas europaea; 57 μM) | Average nitrification [%] in Nitrosomonas europaea (Nitrosomonas europaea; 100 μM)
1 | CN(Cc1c(Cl)nc2sccn12)CN1CCSC1=S [Example 1, 3-[[(6-chloroimidazo[2,1-b][1,3]thiazol-5-yl)methyl-methylamino]methyl]-1,3-thiazolidine-2-thione] | strongly inhibited nitrification | < 2 µM | 0% |  |  |  |  |  |  |  |  |  |  |  |  |  | 
2 | CN(Cc1nc2ccccc2s1)CN1CCOC1=S [Example 5, 3-[[1,3-benzothiazol-2-ylmethyl(methyl)amino]methyl]-1,3-oxazolidine-2-thione] | strong nitrification inhibition | 11 µM | 0% |  |  |  |  |  |  |  |  |  |  |  |  |  | 
3 | S=C1NCCO1 [Example 7] |  | < 6 µM | 0% | 100% | 8% | 32% | 38% |  |  |  |  |  |  |  |  |  | 
4 | S=c1[nH]ccs1 [Example 24, 3H-1,3-thiazole-2-thione] | nearly completely inhibits nitrification | 13 µM | 1% | 40% |  |  |  | effectively inhibits nitrification in soil | 14% | 79% | 78% | 76% | 74% | 60% | 43% | 20% | 1%
5 | CSc1nccs1 [Example 25, 2-(methylsulfanyI)-1,3-thiazole] |  | 12 µM | 2% | 73% | 3% | 14% | 30% |  |  | 85% | 76% | 73% | 58% | 50% | 32% | 20% | 2%
